IC90 and MIC data for ten compounds are collected here from patent publication US20230141600A1, “IMIDAZOPYRAZINE DERIVATIVES” (priority 2020, published 2023).

Structures can show the parent of a compound that is named as a salt.

One test relates to Acinetobacter baumannii ATCC17978. Put plainly: 90% growth inhibitory concentration (IC90) determination, antimicrobial susceptibility testing. It counts as cell-based. Particulars: ATCC17978, 90% growth inhibition, Iso-Sensitest broth, OD 600 nm over 16 h, 35±2° C., read-out: ATCC 17978 IC90. As to the method:
Antimicrobial Susceptibility Testing:
90% Growth Inhibitory Concentration (IC90) Determination
The in vitro antimicrobial activity of the compounds was determined according to the following procedure:
The assay used a 10-points Iso-Sensitest broth medium to measure quantitatively the in vitro activity of the compounds against Acinetobacter baumannii ATCC17961 and ATCC17978.
Stock compounds in DMSO were serially twofold diluted (e.g. range from 50 to 0.097 μM final concentration) in 384 wells microtiter plates and inoculated with 49 μl the bacterial suspension in Iso-Sensitest medium to have a final cell concentration of ˜5×10^(5) CFU/ml in a final volume/well of 50 ul/well. Microtiter plates were incubated at 35±2° C.
Bacterial cell growth was determined with the measurement of optical density at λ=600 nm each minutes over a time course of 16 h. Growth inhibition was calculated during the logarithmic growth of the bacterial cells with determination of the concentration inhibiting 50% (IC50) and 90% (IC90) of the growth.
Table 1 provides the 90% growth inhibitory concentrations (IC90) in micromoles per liter of the compounds of present invention obtained against the strain Acinetobacter baumannii ATCC17978.
Turning to `CCc1cc(Nc2nccn3c(-c4ccc(OC)c(F)c4F)cnc23)ccc1C(=O)NCCOCC[N+](C)(C)CC(N)=O` [Example 52, (2-Amino-2-oxo-ethyl)-[2-[2-[[4-[[3-(2,3-difluoro-4-methoxy-phenyl)imidazo[1,2-a]pyrazin-8-yl]amino]-2-ethyl-benzoyl]amino]ethoxy]ethyl]-dimethyl-ammonium Formate], the IC90 stood at 38.8 nM.

Consider `CCc1cc(Nc2nccn3c(-c4ccc(OC)c(F)c4F)cnc23)ccc1C(=O)NCCOCC[N+](C)(C)CCCC(=O)O` [Example 53, 3-Carboxypropyl-[2-[2-[[4-[[3-(2,3-difluoro-4-methoxy-phenyl)imidazo[1,2-a]pyrazin-8-yl]amino]-2-ethyl-benzoyl]amino]ethoxy]ethyl]-dimethyl-ammonium Formate], for which the IC90 amounted to 405 nM.

With `C[N+](C)(C)CC(=O)N1CCN(C(=O)c2ccc(Nc3nccn4c(-c5ccc(OCC#N)c(F)c5F)cnc34)cc2Cl)CC1` [Example 54, 2-(4-(2-Chloro-4-((3-(4-(cyanomethoxy)-2,3-difluorophenyl)imidazo[1,2-a]pyrazin-8-yl)amino)benzoyl)piperazin-1-yl)-N,N,N-trimethyl-2-oxoethan-1-aminium Formate], the IC90 came out at 45.2 nM.

In a further test the test system is Acinetobacter baumannii ATCC 17978. Put plainly: Minimal inhibitory concentration (MIC) determination, broth microdilution (CLSI M07-A10). The class given is cell-based. Particulars: ATCC17978, lowest concentration for complete growth inhibition, 18-24 hours at 35±2° C., read-out: ATCC 17978 MIC. As to the method:
Minimal Inhibitory Concentration (MIC) and MIC90 Determination:
The MIC of antibacterial compounds against multiple species and strains was determined using the broth microdilution method according to M07-A10 Clinical and Laboratory Standards Institute (CLSI) guidelines (CLSI (2015) Methods for dilution antimicrobial susceptibility tests for bacteria that grow aerobically; Approved Standard, Tenth Edition. CLSI Document M7-A10 (ISBN 1-56238-987-4). Wayne, Pa.: Clinical and Laboratory Standards Institute, 19087, USA), using the appropriate broth medium. In short, the compound plates were prepared by dispensing 100 μl of each stock solution in the first well of a 96 well microtiter plate (MTP) at a concentration 100-fold higher than the final concentration desired in broth. Eleven serial 2-fold dilutions of the highest concentration were made in DMSO for new compounds and in water (or appropriate solution) for reference compounds (CLSI (2017) Performance Standards for Antimicrobial Susceptibility Testing; […] Informational Supplement. CLSI Document M100-S27, CLSI, Wayne, Pa. 19087, USA). 1 μL of each well was transferred in a new MTP, which served as the test plate by subsequent inoculation. This bacterial suspension was prepared from strains that were first sub-cultured on agar plates and incubated for 18-24 hours as appropriate. Following incubation, the inoculum was prepared from isolated colonies and adjusted to 0.5 McFarland turbidity standard (1 to 2×10^8 Colony Forming Units (CFU)/mL) in 0.9% saline. The bacterial suspension was then diluted 1:200 in appropriate sterile medium and within 15 minutes 100 μL/well were dispensed. Negative controls (lack of bacterial cells) and growth control wells (lack of compound) were included in all plates. MTPs were incubated for 18-24 hours at 35±2° C. in ambient air. The MIC value of each compound, expressed as μg/mL, was determined as the lowest concentration required for complete growth inhibition (no visible growth). MIC90 and MIC50 values were defined as the lowest concentration of the antibacterial compound at which 90% and 50% of the strains were inhibited.
Table 3 provides the MIC's of particular compounds of the present invention obtained against the strain Acinetobacter baumannii ATCC 17978, expressed as μg/mL.
In general terms: In broth dilution the organism is exposed to a series of concentrations in liquid medium.
As for `CCc1cc(Nc2nccn3c(-c4ccc(OC(F)F)c(F)c4F)cnc23)ccc1C(=O)N1CCC(C(=O)N2C[C@@H]3C[C@H]2C[N+]3(C)CC2CNC2)CC1.O=C([O-])C(F)(F)F.O=CO` (mixture of isomers) [Example 100, [4-[[3-[4-(Difluoromethoxy)-2,3-difluoro-phenyl]imidazo[1,2-a]pyrazin-8-yl]amino]-2-ethyl-phenyl]-[4-[rac-(1S,4S)-5-(azetidin-3-ylmethyl)-5-methyl-2-aza-5-azoniabicyclo[2.2.1]heptane-2-carbonyl]-1-piperidyl]methanone; formic acid; 2,2,2-trifluoroacetate (Mixed Salt)], the MIC is 1.84 µg/mL.

As for `CCc1cc(Nc2nccn3c(-c4ccc(Oc5cnn(C)n5)c(F)c4F)cnc23)ccc1C(=O)NCC1CC[N+](C)(CC2CCNC2)CC1.O=C[O-]` (stereo not shown) [Example 6, 4-[[3-[2,3-difluoro-4-(2-methyltriazol-4-yl)oxy-phenyl]imidazo[1,2-a]pyrazin-8-yl]amino]-2-ethyl-N-[[1-methyl-1-(pyrrolidin-3-ylmethyl)piperidin-1-ium-4-yl]methyl]benzamide Formate], the MIC worked out at 8.57 µg/mL.

In the case of `CCc1cc(Nc2nccn3c(-c4ccc(OC(F)F)c(F)c4F)cnc23)ccc1C(=O)N1CCC(C(=O)NCC2CC[N+](C)(CC3CNC3)C2)CC1.O=C([O-])C(F)(F)F.O=CO` (stereo not shown) [Example 98, N-[[1-(Azetidin-3-ylmethyl)-1-methyl-pyrrolidin-1-ium-3-yl]methyl]-1-[4-[[3-[4-(difluoromethoxy)-2,3-difluoro-phenyl]imidazo[1,2-a]pyrazin-8-yl]amino]-2-ethyl-benzoyl]piperidine-4-carboxamide formate/2,2,2-trifluoroacetate (Mixed Salt)], the MIC turned out to be 0.92 µg/mL.

`CCc1cc(Nc2nccn3c(-c4ccc(OC(F)F)c(F)c4F)cnc23)ccc1C(=O)N1CCC(C(=O)N2CC3(C2)C[N+](C)(CC2CNC2)C3)CC1.O=C([O-])C(F)(F)F.O=CO` [Example 99, [4-[2-(azetidin-3-ylmethyl)-2-methyl-6-aza-2-azoniaspiro[3.3]-6-carbonyl]-1-piperidyl]-[4-[[3-[4-(difluoromethoxy)-2,3-difluoro-phenyl]imidazo[1,2-a]pyrazin-8-yl]amino]-2-ethyl-phenyl]methanone formic acid 2,2,2-trifluoroacetate (Mixed Salt)]: the MIC turned out to be 0.92 µg/mL.

For `CCc1cc(Nc2nccn3c(-c4ccc(OC(F)F)c(F)c4F)cnc23)ccc1C(=O)N[C@@H](C)CNC(=O)C1CC[N+](C)(CC2CNC2)CC1.O=C[O-]` (stereo partly drawn) [Example 114, 1-(Azetidin-3-ylmethyl)-N-[(2S)-2-[[4-[[3-[4-(difluoromethoxy)-2,3-difluoro-phenyl]imidazo[1,2-a]pyrazin-8-yl]amino]-2-ethyl-benzoyl]amino]propyl]-1-methyl-piperidin-1-ium-4-carboxamide Formate], the MIC turned out to be 17.8 µg/mL.

For `CCc1cc(Nc2nccn3c(-c4ccc(OC)c(F)c4F)cnc23)ccc1C(=O)NCC[N+]1(C)CCC(C(N)=O)C1.O=C([O-])C(F)(F)F` (stereo not shown) [Example 144, 1-[2-[[4-[[3-(2,3-Difluoro-4-methoxy-phenyl)imidazo[1,2-a]pyrazin-8-yl]amino]-2-ethyl-benzoyl]amino]ethyl]-1-methyl-pyrrolidin-1-ium-3-carboxamide 2,2,2-trifluoroacetate], the MIC stood at 3.62 µg/mL.

The same test, now with this note: ATCC17978, read-out: ATCC 17978 MIC.
On to `CCc1cc(Nc2nccn3c(-c4ccc(OC(F)F)c(F)c4F)cnc23)ccc1C(=O)N1CCC(C(=O)N2CC3CC(C2)[N+]3(C)CC2CNC2)CC1.O=C(O)C(F)(F)F.O=C([O-])C(F)(F)F.O=CO` (stereo not shown) [Example 101, [4-[6-(Azetidin-3-ylmethyl)-6-methyl-3-aza-6-azoniabicyclo[3.1.1]heptane-3-carbonyl]-1-piperidyl]-[4-[[3-[4-(difluoromethoxy)-2,3-difluoro-phenyl]imidazo[1,2-a]pyrazin-8-yl]amino]-2-ethyl-phenyl]methanone formate 2,2,2-trifluoroacetate (Mixed Salt)], for which the MIC stood at 1.84 µg/mL.

In general, IC90 refers to the concentration at which the effect reaches the 90% level. Broadly, the MIC is the lowest concentration found to suppress growth.
